Results on one molecule are retold here after patent US20080076746A1, “Method of Treating Fish and Crustaceans With a Tellurium Based Immunomodulator” (priority 2003, published 2008).

“Also recorded” adds a separate entry of the source.

One data set concerns Aeromonas salmonicida. The experiment in a line: Stressed fish infected with Aeromonas salmonicida and immersed in soluble AS101. In kind it is in vivo, goldfish (Carassius auratus). Conditions: vs stressed infected fish not treated with AS101. How it is done:
(§1) Fish were subjected to air exposure stress every 60 min for 90 sec during 4 hours (10). The fish were then divided into groups of 3, each separately held in 40 L plastic containers at 28°±2° C.

In another data set the test system is IL-10L. The experiment in a line: Serum IL-10L levels in air-exposure stressed fish after AS101 bath immersion (ELISA). The class given is in vivo. As for the experimental part: For in-vitro studies, AS101 was supplied as PBS solution, pH 7.4, at 4° C. For in-vivo experiments, AS101 powder was dissolved in the appropriate concentration in re-circulating water.
as §1
Fish blood was coagulated during 2 hours at room temperature, then centrifuged for 10 min at 1800×g. IL-10L levels were quantified in the collected sera using ELISA (Human Interleukin-10 ELISA Kit, pierce-endogen) according to manufacturer's instructions.
A general note: An ELISA detects its analyte on a solid surface through an enzyme-linked reagent.

The test system of the next data set is tilapia IL-10L. Briefly: AS101 effect on intracellular IL-10L levels of tilapia PBL cell cultures (Western blot). In kind it is cell-based, Tilapia hybrids (Oreochromis niloticus X O. aureus). Conditions: 0.5 μg/ml AS101; dose-dependant; FIG. 1. How it is done:
For in-vitro studies, AS101 was supplied as PBS solution, pH 7.4, at 4° C. For in-vivo experiments, AS101 powder was dissolved in the appropriate concentration in re-circulating water. PBL (peripheral blood leukocytes) were isolated from heparinized blood on a ficoll paque bed (Amersham Bioscience) and cultured as previously reported (9). For AS101 treatments, AS101 was added directly to the cultures at final concentration of 0.025 to 25 μg/ml, preferably 0.05 to 0.5 μg/ml. PBL were lysed as previously reported (6). Samples were electrophoresed on 12% SDS-PAGE and blotted with anti-human-IL-10 mAb (Santa Cruz Biotechnology, Inc sc-8438) (1:660 dilution) and HRP-conjugate secondary Ab (Jackson Immuno-Research) (1:6600 dilution).

The subject of data set [1] is tilapia PBL (peripheral blood leukocytes). The experiment in a line: Cell toxicity in AS101-treated cell cultures (Blue staining). The class given is cell-based, Tilapia hybrids (Oreochromis niloticus X O. aureus). Conditions: all AS101 doses, vs control. As for the experimental part:
PBL (peripheral blood leukocytes) were isolated from heparinized blood on a ficoll paque bed (Amersham Bioscience) and cultured as previously reported (9). For AS101 treatments, AS101 was added directly to the cultures at final concentration of 0.025 to 25 μg/ml, preferably 0.05 to 0.5 μg/ml.

Take `Cl[TeH]1(Cl)(Cl)OCCO1` [AS101, ammonium trichloro [dioxyethylene-O, O′] telurate]: the rate of survival entry with Aeromonas salmonicida (FIG. 5) is “higher survival rates; also recorded: higher rate of survival”. Also, the “number of wounds per fish” value in the data set on Aeromonas salmonicida (p=0.073, FIG. 4) is “significantly lower number of wounds per fish; also recorded: significantly less wounds”. Besides, in the data set with IL-10L (2 hours post-stress, bath immersion in 20-ppm water solution, maximal effect, decrease from 719 in stressed fish, FIG. 3), the “serum IL-10L level” value is 209 pg/mL. In addition, the “serum IL-10L change” value with IL-10L (6 hours after stress induction and bath immersion in different AS101 concentrations, 20 μg/ml most efficient) is on record as “significant IL-10L decrease”. For the same molecule, in the data set with tilapia IL-10L, the “inhibition of intracellular tilapia IL-10L synthesis” value is “complete inhibition”. In data set [1], the “cell death (cell toxicity)” value is recorded as “did not show elevated cell death beyond control”.
